Measured values from ChEMBL document CHEMBL4765362, “Thirty Years of HDAC Inhibitors: 2020 Insight and Hindsight” (J Med Chem, 2020).

Key:
[1] = biological target: T1, Polyamine deacetylase HDAC10 (Homo sapiens, UniProt Q969S8); experiment: Inhibition of HDAC10 (unknown origin)
T1 sequence (Q969S8 whole entry): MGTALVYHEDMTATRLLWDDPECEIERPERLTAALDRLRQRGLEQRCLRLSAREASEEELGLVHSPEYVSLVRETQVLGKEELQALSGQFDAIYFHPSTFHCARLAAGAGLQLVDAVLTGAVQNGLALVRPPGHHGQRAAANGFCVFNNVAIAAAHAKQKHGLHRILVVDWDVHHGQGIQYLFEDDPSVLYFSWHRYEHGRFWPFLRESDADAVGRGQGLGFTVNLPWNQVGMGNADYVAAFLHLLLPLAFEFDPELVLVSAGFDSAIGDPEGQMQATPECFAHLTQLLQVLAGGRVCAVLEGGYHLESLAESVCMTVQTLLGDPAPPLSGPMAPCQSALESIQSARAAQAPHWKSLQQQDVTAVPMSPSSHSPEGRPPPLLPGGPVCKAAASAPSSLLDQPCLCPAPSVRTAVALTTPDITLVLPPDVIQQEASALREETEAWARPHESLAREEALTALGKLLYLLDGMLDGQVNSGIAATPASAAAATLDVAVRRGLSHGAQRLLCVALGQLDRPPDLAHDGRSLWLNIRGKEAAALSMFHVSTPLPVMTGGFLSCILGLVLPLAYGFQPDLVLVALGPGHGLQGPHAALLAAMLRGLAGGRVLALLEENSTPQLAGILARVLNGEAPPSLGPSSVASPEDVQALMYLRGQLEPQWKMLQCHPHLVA

[2] = biological target: T2, Histone deacetylase 4 (Homo sapiens, UniProt P56524); experiment: Inhibition of human full length C-terminal Flag tagged HDAC4 expressed in HEK293T cells using H3K9-myristoyl peptide as substrate by HPLC method
[3] = biological target: T3, Histone deacetylase 11 (Homo sapiens, UniProt Q96DB2); experiment: Inhibition of human full length C-terminal Flag tagged HDAC11 expressed in HEK293T cells assessed as reduction in demyristoylation activity using H3K9-myristoyl peptide as substrate by HPLC method
T3 sequence (Q96DB2 whole entry): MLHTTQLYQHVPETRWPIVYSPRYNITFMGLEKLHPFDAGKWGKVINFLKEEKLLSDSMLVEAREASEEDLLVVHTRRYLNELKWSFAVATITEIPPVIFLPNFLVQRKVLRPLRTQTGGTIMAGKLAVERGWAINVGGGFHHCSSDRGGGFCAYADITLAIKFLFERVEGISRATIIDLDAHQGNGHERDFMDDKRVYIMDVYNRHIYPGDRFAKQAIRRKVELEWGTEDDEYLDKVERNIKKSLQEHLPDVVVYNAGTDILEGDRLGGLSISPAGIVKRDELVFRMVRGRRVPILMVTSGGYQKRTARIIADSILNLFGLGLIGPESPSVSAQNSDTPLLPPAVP

[4] = biological target: T1, Polyamine deacetylase HDAC10; experiment: Inhibition of HDAC10 (unknown origin) using p53 residues (379 to 382)(RHKK(Ac)-AMC) as substrate by fluorescent method
[5] = biological target: T2, Histone deacetylase 4; experiment: Inhibition of HDAC4 (unknown origin) using HDAC class IIa substrate (trifluoroacetyl-lysine-AMC) as substrate by fluorescent method
[6] = biological target: Histone deacetylase 9 (Homo sapiens, UniProt Q9UKV0); experiment: Inhibition of HDAC9 (unknown origin) using HDAC class IIa substrate (trifluoroacetyl-lysine-AMC) as substrate by fluorescent method
[7] = biological target: T3, Histone deacetylase 11; experiment: Inhibition of HDAC11 (unknown origin) using p53 (379 to 382 residues)(RHKK(Ac)-AMC) as substrate by fluorescent method
[8] = biological target: Histone deacetylase 5 (Homo sapiens, UniProt Q9UQL6); experiment: Inhibition of HDAC5 (unknown origin) using HDAC class IIa substrate (trifluoroacetyl-lysine-AMC) as substrate by fluorescent method
Histone deacetylase 5, sequence (Q9UQL6 whole entry): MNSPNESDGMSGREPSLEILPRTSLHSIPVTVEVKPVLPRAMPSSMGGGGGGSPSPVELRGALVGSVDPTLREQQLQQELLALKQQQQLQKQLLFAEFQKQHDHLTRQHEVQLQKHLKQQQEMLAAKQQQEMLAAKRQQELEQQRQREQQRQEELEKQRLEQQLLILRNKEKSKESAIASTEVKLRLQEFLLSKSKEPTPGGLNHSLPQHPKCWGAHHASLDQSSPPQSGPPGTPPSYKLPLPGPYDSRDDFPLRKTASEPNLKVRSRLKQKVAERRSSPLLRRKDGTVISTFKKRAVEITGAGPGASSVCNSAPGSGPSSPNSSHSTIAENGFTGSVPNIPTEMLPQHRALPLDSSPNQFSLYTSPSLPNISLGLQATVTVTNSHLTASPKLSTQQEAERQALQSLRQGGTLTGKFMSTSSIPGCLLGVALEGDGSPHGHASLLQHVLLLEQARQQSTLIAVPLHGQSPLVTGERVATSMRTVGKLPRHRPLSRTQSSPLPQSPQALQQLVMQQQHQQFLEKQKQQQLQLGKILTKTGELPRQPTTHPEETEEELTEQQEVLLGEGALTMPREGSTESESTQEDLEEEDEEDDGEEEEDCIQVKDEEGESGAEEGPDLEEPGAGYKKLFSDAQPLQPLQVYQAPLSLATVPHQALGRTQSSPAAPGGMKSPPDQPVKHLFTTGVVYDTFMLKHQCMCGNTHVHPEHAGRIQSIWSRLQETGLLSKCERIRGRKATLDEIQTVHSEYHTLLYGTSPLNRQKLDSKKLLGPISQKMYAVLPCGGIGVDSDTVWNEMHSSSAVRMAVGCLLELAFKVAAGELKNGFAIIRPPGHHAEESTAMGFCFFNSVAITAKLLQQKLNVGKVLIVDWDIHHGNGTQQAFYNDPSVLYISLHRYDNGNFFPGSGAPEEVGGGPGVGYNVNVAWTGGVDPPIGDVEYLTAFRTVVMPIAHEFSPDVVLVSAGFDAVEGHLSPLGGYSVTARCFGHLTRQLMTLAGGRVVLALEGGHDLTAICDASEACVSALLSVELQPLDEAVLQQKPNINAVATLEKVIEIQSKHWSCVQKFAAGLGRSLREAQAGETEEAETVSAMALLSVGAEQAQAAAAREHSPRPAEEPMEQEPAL

T2 sequence (P56524 whole entry): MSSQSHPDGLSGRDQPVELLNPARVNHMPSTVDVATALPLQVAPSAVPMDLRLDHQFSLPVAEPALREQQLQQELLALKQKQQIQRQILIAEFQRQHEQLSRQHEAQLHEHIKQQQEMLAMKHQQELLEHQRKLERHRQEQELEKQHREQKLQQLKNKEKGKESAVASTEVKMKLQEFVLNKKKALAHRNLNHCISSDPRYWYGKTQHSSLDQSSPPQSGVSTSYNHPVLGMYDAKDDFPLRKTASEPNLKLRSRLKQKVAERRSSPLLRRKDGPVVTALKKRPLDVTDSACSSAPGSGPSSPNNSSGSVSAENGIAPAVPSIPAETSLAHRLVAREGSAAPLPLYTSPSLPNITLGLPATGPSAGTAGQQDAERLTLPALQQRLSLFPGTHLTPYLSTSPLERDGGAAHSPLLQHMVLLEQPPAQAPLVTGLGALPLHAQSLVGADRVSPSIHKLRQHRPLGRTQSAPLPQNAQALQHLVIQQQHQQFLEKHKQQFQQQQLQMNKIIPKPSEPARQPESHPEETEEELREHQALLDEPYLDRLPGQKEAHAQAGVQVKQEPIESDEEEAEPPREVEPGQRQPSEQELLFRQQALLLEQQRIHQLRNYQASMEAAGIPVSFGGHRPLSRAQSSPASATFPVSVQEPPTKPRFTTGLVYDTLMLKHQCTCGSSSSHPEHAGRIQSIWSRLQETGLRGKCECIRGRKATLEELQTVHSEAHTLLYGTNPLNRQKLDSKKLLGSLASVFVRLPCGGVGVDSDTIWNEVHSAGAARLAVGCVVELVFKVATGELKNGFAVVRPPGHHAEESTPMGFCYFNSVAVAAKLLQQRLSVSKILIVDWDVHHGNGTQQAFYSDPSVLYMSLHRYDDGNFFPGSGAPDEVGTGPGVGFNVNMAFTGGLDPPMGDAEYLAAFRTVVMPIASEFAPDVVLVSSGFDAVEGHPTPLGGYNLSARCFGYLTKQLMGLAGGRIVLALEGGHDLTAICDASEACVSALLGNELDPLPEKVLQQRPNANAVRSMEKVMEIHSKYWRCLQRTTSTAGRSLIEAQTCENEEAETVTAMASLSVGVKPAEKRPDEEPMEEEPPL
Histone deacetylase 9, sequence (Q9UKV0 whole entry, the tested form may be a part): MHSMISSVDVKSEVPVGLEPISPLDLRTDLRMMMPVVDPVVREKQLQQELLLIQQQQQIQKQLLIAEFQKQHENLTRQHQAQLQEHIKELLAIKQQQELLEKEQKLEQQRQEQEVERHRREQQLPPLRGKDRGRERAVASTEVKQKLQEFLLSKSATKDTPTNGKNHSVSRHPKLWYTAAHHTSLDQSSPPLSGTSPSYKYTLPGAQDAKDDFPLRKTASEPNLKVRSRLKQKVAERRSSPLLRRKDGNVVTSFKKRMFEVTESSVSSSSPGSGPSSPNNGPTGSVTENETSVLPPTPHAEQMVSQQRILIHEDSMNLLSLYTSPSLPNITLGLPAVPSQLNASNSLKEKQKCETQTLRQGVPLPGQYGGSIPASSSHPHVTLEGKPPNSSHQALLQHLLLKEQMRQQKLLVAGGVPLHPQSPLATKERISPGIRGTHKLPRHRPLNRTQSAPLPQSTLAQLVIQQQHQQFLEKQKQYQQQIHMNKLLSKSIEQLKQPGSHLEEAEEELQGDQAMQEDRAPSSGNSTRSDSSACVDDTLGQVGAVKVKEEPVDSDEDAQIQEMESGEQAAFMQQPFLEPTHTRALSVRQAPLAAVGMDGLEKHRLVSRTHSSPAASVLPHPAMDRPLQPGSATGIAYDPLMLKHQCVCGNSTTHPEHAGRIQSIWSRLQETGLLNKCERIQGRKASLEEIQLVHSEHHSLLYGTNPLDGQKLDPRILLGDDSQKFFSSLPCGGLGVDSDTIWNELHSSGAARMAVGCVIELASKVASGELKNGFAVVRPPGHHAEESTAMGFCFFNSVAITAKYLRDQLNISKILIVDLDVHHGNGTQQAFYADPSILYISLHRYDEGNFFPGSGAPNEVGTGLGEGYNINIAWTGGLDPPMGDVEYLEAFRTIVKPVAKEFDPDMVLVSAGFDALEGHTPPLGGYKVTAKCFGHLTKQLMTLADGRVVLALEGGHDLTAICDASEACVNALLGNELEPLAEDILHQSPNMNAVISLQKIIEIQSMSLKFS

## CCCCCCCCCCCCCCCCNNC(=O)c1cccs1
[1]
  IC50: > 10 µM
[2]
  IC50: > 10 µM
[3]
  IC50: 0.83 µM

## Cn1cc(-c2ccc(S(=O)(=O)n3ccc(/C=C/C(=O)Nc4ccccc4N)c3)cc2)cn1 [DOMATINOSTAT]
[4]
  IC50: > 10 µM
[5]
  IC50: > 10 µM
[6]
  IC50: > 10 µM
[7]
  IC50: 9.7 µM
[8]
  IC50: > 10 µM
